Data: paper PMC7037393, “Synthesis, Structural, and Cytotoxic Properties of New Water-Soluble Copper(II) Complexes Based on 2,9-Dimethyl-1,10-Phenanthroline and Their One Derivative Containing 1,3,5-Triaza-7-Phosphaadamantane-7-Oxide” (Molecules, 2020)

Key:
[1] = target: T1, human apo-transferrin (apo-Tf) (Homo sapiens, UniProt P02787); test: Apo-transferrin interaction by fluorescence quenching (Stern-Volmer, binding, van't Hoff); conditions: for Ka (association constant) / Ksv (Stern-Volmer quenching constant): PBS pH 7.40; for Kq (quenching rate constant): Kq = Ksv/τo, τo 2.5 ns; for H^0 (enthalpy change) / S^0 (entropy change): van't Hoff, 300 and 310 K
T1 construct: purchased Sigma-Aldrich
Description: There are two mechanisms of fluorescence quenching, dynamic and static, that can be distinguished based on the temperature dependency. Dynamic quenching is due to collisions between quencher and fluorophore and static quenching results from the formation of the ground state complex between the molecules. A modified Stern–Volmer equation (Equation (3)) was used to calculate Stern–Volmer quenching constants (KSV) and quenching rate constants (Kq) of the interactions between apo-transferrin and copper complexes and to determine the mechanism of fluorescence quenching. Fo/(Fo − F) = 1/fa + 1/(faKsv[Q])(3)
In the equation, Fo and F are the fluorescence intensities of protein in the absence and presence of the quencher in the concentration (Q), respectively; KSV is the Stern–Volmer quenching constant; and fa is the fraction of the fluorophore accessible to the quencher.
Kq, the quenching rate constant of the biomolecules, is expressed as:Kq = Ksv/τo(4) where τo is the fluorescence lifetime of protein without quencher. For apo-transferrin, the τo value is 2.5 ns.
Association constants (Ka) and number of binding sites (n) were determined based on the Equation (5):log {(Fo − F)/F} = logKa + nlog[Q](5) where Fo and F are the fluorescence intensities in the absence and presence of the quencher in the concentration (Q), respectively, Ka is the binding constant, and n is the number of binding sites.
It is known that interactions between proteins and small molecules include hydrogen bonds, van der Waals, and electrostatic forces as well hydrophobic interactions. Based on thermodynamic parameters, we determined the type of interaction of copper complexes with apo-transferrin.
∆G^0 = ∆H^0 − T∆S^0(7) where Ka is the bimolecular binding constant at the corresponding temperature (T); R is the gas constant; and ΔH^0, ΔS^0, and ΔG^0 are enthalpy, entropy, and free energy change, respectively.
High purity apo-transferrin (≥ 98%, Sigma-Aldrich, Steinheim, North Rhine-Westphalia, Germany) was used without prior purification. The stock solutions of the complexes were prepared in demineralized water (1 and 2) or ethanol (3). The apo-Tf was dissolved in PBS (pH 7.40). The molar ratios of the final samples in PBS were (protein):(drug) = 1:0–1:16 in PBS with the protein concentration equal 2 μM. Samples were incubated at 300 and 310 K for 5 min. The apo-Tf concentration was determined using ε (280 nm) = 11.2 mM^−1 × cm^−1.
Emission fluorescence spectra were recorded on Jasco 8200 spectrofluorimeter (Tokyo, Japan) in the range of 300–500 nm using 1.0 cm quartz cells. The λex was set to 280 nm and the excitation and emission slit widths were set to 5 nm. All fluorescence intensities were corrected (according to Equation (8)) for the inner filter and dilution effects and the corrected values were used to determine the quenching mechanism and binding data. […] Therefore, all spectra are shown as different spectra of (apo-Tf-copper complex)−(copper complex). Fcorr = exp(A280 + Aem/2) × Fexp(8)

[2] = Octanol-water partition coefficient (log P), UV-Vis; format: physicochemical; conditions: room temperature, 10^−5 M
Procedure: The log P values consistent to the octanol-water partition coefficient were adjusted to the solubility properties of the compounds [94]. Complexes 1–3 were dissolved in water, previously saturated with octanol with concentrations 10^−5 M. Into a 25-mL flask at room temperature with a magnetic stir bar was introduced initially 5 mL of octanol previously saturated with water and then 5 mL of the complex solutions in water. A two-phase mixture was stirred vigorously for 15 min and samples, which were measured by UV-Vis spectroscopy, were taken from the separated phases.

T1 sequence (P02787 20-698): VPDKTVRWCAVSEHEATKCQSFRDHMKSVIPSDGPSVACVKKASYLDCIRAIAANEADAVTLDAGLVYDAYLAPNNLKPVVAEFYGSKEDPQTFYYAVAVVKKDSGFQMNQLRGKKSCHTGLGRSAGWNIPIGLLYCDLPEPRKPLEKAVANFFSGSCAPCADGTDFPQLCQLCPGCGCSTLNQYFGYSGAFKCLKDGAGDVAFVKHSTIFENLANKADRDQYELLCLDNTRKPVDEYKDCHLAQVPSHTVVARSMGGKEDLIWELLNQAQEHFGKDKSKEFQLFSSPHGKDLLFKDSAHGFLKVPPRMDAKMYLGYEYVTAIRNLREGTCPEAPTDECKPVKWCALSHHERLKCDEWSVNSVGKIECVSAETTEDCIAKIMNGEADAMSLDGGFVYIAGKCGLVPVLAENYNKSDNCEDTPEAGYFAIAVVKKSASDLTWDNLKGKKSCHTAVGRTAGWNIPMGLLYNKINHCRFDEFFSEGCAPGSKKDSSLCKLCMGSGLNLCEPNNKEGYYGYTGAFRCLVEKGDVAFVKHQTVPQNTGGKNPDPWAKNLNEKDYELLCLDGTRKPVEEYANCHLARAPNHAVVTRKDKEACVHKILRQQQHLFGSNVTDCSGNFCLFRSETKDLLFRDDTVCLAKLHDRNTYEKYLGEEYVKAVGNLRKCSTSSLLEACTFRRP

| Structure (SMILES) | G^0 (free energy change) ([1]; 300 K) | Ksv values ([1]; 300 K) | n (number of binding sites) ([1]; 300 K) | Ka (association constant) ([1]; 300K) | Ksv (Stern-Volmer quenching constant) ([1]; 300K) | G^0 (free energy change) ([1]; 310 K) | Ksv values ([1]; 310 K) | n (number of binding sites) ([1]; 310 K) | Kq (quenching rate constant) ([1]; 310K) | Ka (association constant) ([1]; 310K) | Ksv (Stern-Volmer quenching constant) ([1]; 310K) | H^0 (enthalpy change) [1] | S^0 (entropy change) [1] | log P (octanol-water partition coefficient) [2] | Kq (quenching rate constant) ([1]; 300K) |
| --- | --- | --- | --- | --- | --- | --- | --- | --- | --- | --- | --- | --- | --- | --- | --- |
| CC#N.Cc1ccc2ccc3ccc(C)nc3c2n1.O=[N+]([O-])[O-].O=[N+]([O-])[O-].[Cu+2] [Complex 3, [Cu(NO3)2(dmphen)]∙MeCN] | -9.563 kcal/mol | 53700 M⁻¹ | 1.40 ± 0.076 | 9.26 ± 0.37 ·10^6 [M^−1] | 5.37 ± 0.023 ·10^4 [M^−1] | -9.888 kcal/mol | 35100 M⁻¹ | 1.42 ± 0.068 | 1.40 ± 0.062 ·10^13 [M^−1s^−1] | 9.38 ± 0.33 ·10^6 [M^−1] | 3.51 ± 0.062 ·10^4 [M^−1] | 230 kcal/mol | 136.57 J mol^−1 K^−1 | 1.11 | – |
| Cc1ccc2ccc3ccc(C)nc3c2n1.Cc1ccc2ccc3ccc(C)nc3c2n1.F[P-](F)(F)(F)(F)F.[Cl-].[Cu+2] [Complex 2, [Cu(Cl)(dmphen)2][PF6]] | -9.118 kcal/mol | – | 1.35 ± 0.050 | 4.38 ± 0.24 ·10^6 [M^−1] | 4.03 ± 0.050 ·10^4 [M^−1] | -9.19 kcal/mol | – | 1.31 ± 0.066 | 2.27 ± 0.024 ·10^13 [M^−1s^−1] | 3.04 ± 0.32 ·10^6 [M^−1] | 5.69 ± 0.024 ·10^4 [M^−1] | -6.75 kcal/mol | 33.02 J mol^−1 K^−1 | 1.75 | 1.61 ± 0.050 ·10^13 [M^−1s^−1] |
| Cc1ccc2ccc3ccc(C)nc3c2n1.F[P-](F)(F)(F)(F)F.O=P12CN3CN(CN(C3)C1)C2.O=[N+]([O-])[O-].[Cu+2] [Complex 1, [Cu(NO3)(PTA=O)(dmphen)][PF6]] | -8.253 kcal/mol | – | 1.26 ± 0.033 | 1.03 ± 0.16 ·10^6 [M^−1] | 2.50 ± 0.011 ·10^4 [M^−1] | -8.406 kcal/mol | – | 1.24 ± 0.036 | 1.17 ± 0.029 ·10^13 [M^−1s^−1] | 0.843 ± 0.17 ·10^6 [M^−1] | 2.92 ± 0.029 ·10^4 [M^−1] | -3.664 kcal/mol | 63.99 J mol^−1 K^−1 | 0.90 | 1.00 ± 0.011 ·10^13 [M^−1s^−1] |
